“Also recorded” adds a separate entry of the source. Like-named read-outs stand apart in the source and are kept apart here.
What was measured:
[1] = test system: glutathione levels (GSH) in H9 cells; experiment: Elevation of glutathione (GSH) levels in H9 cells; assay type: cell-based, human; conditions: for fold induction at 30 µM / fold induction at 60 µM / fold induction at 120 µM: Homo sapiens, read-out: Glutathione levels, treated to control value
Experimental: (§1) Five ml of medium was added to T-25 flasks and DMSO containing tests compounds were added to a final concentration of 0.1%. Control medium contained 0.1% DMSO. After the drugs were added, 5×10^6 cells in 5 ml of medium was added to each T-25 flask. The cells were grown at 37° C. in a humidified incubator supplemented with 5% CO2 until harvested (N=3 flasks/group). At the indicated times, cells were isolated by centrifugation (500×g×10 min) and were washed three times by adding 10 ml of ice-cold DPBS, mixing, and centrifuging in a refrigerated centrifuge (500×g×10 min) to isolate the cell pellets. The cells were then lysed by the addition of 400 μl of ice-cold DPBS containing 0.5% Triton X-100 and vortexing. Supernatants were then isolated by centrifuging the lysates (5000×g×20 min). Samples were kept on ice or refrigerated until the reagents for QR or GSH spectrophotometric assays were added to the aliquoted microtiter plates. QR levels were determined by aliquoting 10 μl/well of supernatant in a 96-well plate and measuring the activity by the assay described by Prochaska and Santamaria (20) except that the final NADP^+ concentration was 200 μM (21). Samples were assayed in quadruplicate, and dicoumarol inhibitable-rates (which generally represented less than 5% of the total rate) were also measured. Spectrophotometric blanks contained 10 μl of DPBS with 0.5% Triton X-100. For the GSH assay, 300 μl of sample was placed in a centricon-10microconcentrator and centrifuged (5000×g×45 min) until enough ultrafiltrate could be collected. 50 μl/well of sample in quadruplicate was placed in a 96 well "half-area" plate after which 20 μl of 1 mM Ellman's reagent dissolved in DPBS was added. The yellow color (22) developed within 5 min and was scanned with a uvmax microtiter scanner (Palo Alto, Calif.) at 405 nm. Spectrophotometric blanks contained 50 μl DPBS with 0.5% Triton X-100 and 20 μl of 1 mM Ellman's reagent in DPBS. The optical densities of the specimens were calibrated to a GSH standard curve. Protein contents were determined in 3 ml cuvettes by the Bradford method (23). The protein content in the ultrafiltrates employed for GSH determinations were negligible (<0.01 mg/ml).

[2] = test system: quinone reductase (QR) in H9 cells; experiment: Elevation of quinone reductase (QR) in H9 cells; assay type: cell-based, human; conditions: for fold induction at 30 µM / fold induction at 60 µM / fold induction at 120 µM: Homo sapiens, read-out: Quinone reductase, treated to control value
Experimental: as §1
We confirmed that the induction of QR in microtiter wells mirrored our results in T-25 flasks by using the method of Prochaska and Santamaria (20). Medium (100 μl) containing 0.1% final concentration DMSO was added to all wells except columns designated to contain the highest concentration of drug or spectrophotometric blanks in duplicate sets of U-bottomed microtiter plates. 200 μl of media containing drug (final DMSO concentration=0.1%) was added to the empty column of wells and then diluted in 2-fold serial dilutions across. After the serial dilutions were performed, 100 μl of media containing 1×10^6 cells/ml was added to each well, and the plates were placed in a 37° C. incubator for 48 h. One set of plates was assayed as described (21) for QR activity, the other was assayed for cell number by the method for Alley et al. (24).

[3] = target: T1, HIV-1 reverse transcriptase (RT) (Human immunodeficiency virus type 1 group M subtype B, UniProt P04585); experiment: Time-dependent (irreversible) inhibition of HIV-1 reverse transcriptase after preincubation; assay type: biochemical
T1 construct: Recombinant HIV-1 reverse transcriptase (RT) was obtained from Worthington (Freehold, N.J.); purchased Worthington (Freehold, N.J.)
Experimental: FIG. 6. […] RT was preincubated for the times indicated with oltipraz dissolved in DPBS containing 1 mg/ml bovine serum albumin, 0.13% DMSO, and either 4 μM TTP or 5 μg/ml poly(A):2.5 μg/ml oligo(dT). After incubation, 10 μl aliquots in triplicate were added to 25 μl of a reaction cocktail containing 4 μM TTP, 5 μg/ml poly(A), and 2.5 μg/ml oligo(dT) and assayed for TTP incorporation into DNA over 30 min. as described by Flexner, et al. (25). The insets are Kitz-Wilson transformations (41).
Reverse transcriptase assays were performed as described by Flexner, et al. (25) using recombinant HIV-1 RT as the source of enzyme. Dilutions and assay were carried out in 96-well "half-area" plates. The enzyme with various concentrations of test compounds were dissolved in DPBS containing 1% w/v BSA and diluted in 50 μl volumes; 10 μl aliquots in triplicate were transferred to another plate for the enzyme assay. The reactions were initiated by the addition of 25 μl/well of buffer containing 50 mM Tris.cndot.Cl (pH 8.0), 75 mM KCl, 1 mM dithiothreitol, 2 mM MgCl2, 5 μg/ml poly(A), 2.5 μg/ml oligo (dT), 10 μCi/ml ^32 p TTP with or without unlabeled TTP. […] TTP incorporation was measured by spotting 20 μl of the reaction cocktail onto DE81 paper, washing the paper with 4×5 min washes of 300 mM NaCl and 30 mM sodium citrate (pH 7.0), drying the paper, and counting the paper by liquid scintillation counting. The assays performed with oltipraz and 1,2-dithiole-3-thione contained 0.29% final concentration DMSO.

[4] = test system: HTLV-I reverse transcriptase; conditions: MT-2 (HTLV-I-infected) cells, FIG. 7
Experimental: MT-2 is a lymphocytic cell-line that is transformed by, and is antigen positive for HTLV-I. HTLV-I can be detected in supernatants of MT-2 cultures by monitoring reverse transcriptase activity. Using the MT-2 system compounds that are inhibitors of HTLV-I reverse transciptase can be identified. MT-2 cells are washed and incubated in triplicate with various concentrations of the test compounds, positive drug controls, negative drug controls or media alone. A cell-line that is negative for HTLV-I, such as H9, is used as a negative reverse transcriptase control. After 72 hours of incubation, culture supernatants are harvested and tested for reverse transcriptase activity as described (25). Inhibition of reverse transcriptase activity is calculated by comparing the radioactive counts in the experimental compounds to the MT-2 non-drug controls. ED50's can be calculated for each compound.

[5] = test system: glutathione S-transferases; conditions: Schistosoma mansoni; cited from earlier work
[6] = dose- and time-dependent, H9 cells

For `Cc1c(-c2cnccn2)ssc1=S` [compound 11, 4-methyl-5-(2-pyrazinyl)-1,2-dithiole-3-thione], the “Glutathione Levels” value ([1]; 24 h, 30 μM) was 62.0 ± 2.0 nmol/mg, the “Glutathione Levels” value ([1]; 24 h, 60 μM) was 83.5 ± 1.7 nmol/mg and the “Glutathione Levels” value ([1]; 24 h, 120 μM) was 109 ± 28 nmol/mg. For the same compound, the “Glutathione Levels” value ([1]; 48 h, 30 μM) was 52.7 ± 2.9 nmol/mg, the “Glutathione Levels” value ([1]; 48 h, 60 μM) was 68.0 ± 2.9 nmol/mg and the “Glutathione Levels” value ([1]; 48 h, 120 μM) was 79.7 ± 0.28 nmol/mg. For the same compound, the “Glutathione Levels” value ([1]; 72 h, 30 μM) was 40.4 ± 4.7 nmol/mg, the “Glutathione Levels” value ([1]; 72 h, 60 μM) was 47.3 ± 4.6 nmol/mg and the “Glutathione Levels” value ([1]; 72 h, 120 μM) was 75.0 ± 8.6 nmol/mg. The fold induction at 30 µM ([1]; H9, 24 h) was 1.1, the fold induction at 60 µM ([1]; H9, 24 h) was 1.48 and the fold induction at 120 µM ([1]; H9, 24 h) was 1.93. It also gave a fold induction at 30 µM ([1]; H9, 48 h) of 1.52, a fold induction at 60 µM ([1]; H9, 48 h) of 1.96 and a fold induction at 120 µM ([1]; H9, 48 h) of 2.28. The fold induction at 30 µM ([1]; H9, 72 h) was 0.86, the fold induction at 60 µM ([1]; H9, 72 h) was 1.01 and the fold induction at 120 µM ([1]; H9, 72 h) was 1.6. The “elevation of GSH” value [1, 6] was “able to elevate both GSH and QR levels”, the “Quinone Reductase Specific Activity” value ([2]; 24 h, 30 μM) was 62.0 ± 2.0 nmol/min/mg and the “Quinone Reductase Specific Activity” value ([2]; 24 h, 60 μM) was 83.5 ± 1.7 nmol/min/mg. For the same compound, the “Quinone Reductase Specific Activity” value ([2]; 24 h, 120 μM) was 109 ± 28 nmol/min/mg, the “Quinone Reductase Specific Activity” value ([2]; 48 h, 30 μM) was 52.7 ± 2.9 nmol/min/mg and the “Quinone Reductase Specific Activity” value ([2]; 48 h, 60 μM) was 68.0 ± 2.9 nmol/min/mg. The “Quinone Reductase Specific Activity” value ([2]; 48 h, 120 μM) was 79.7 ± 0.28 nmol/min/mg, the “Quinone Reductase Specific Activity” value ([2]; 72 h, 30 μM) was 40.4 ± 4.7 nmol/min/mg and the “Quinone Reductase Specific Activity” value ([2]; 72 h, 60 μM) was 47.3 ± 4.6 nmol/min/mg. For the same compound, the “Quinone Reductase Specific Activity” value ([2]; 72 h, 120 μM) was 75.0 ± 8.6 nmol/min/mg, the fold induction at 30 µM ([2]; H9, 24 h) was 1.1 and the fold induction at 60 µM ([2]; H9, 24 h) was 1.48. The fold induction at 120 µM ([2]; H9, 24 h) was 1.93, the fold induction at 30 µM ([2]; H9, 48 h) was 1.52 and the fold induction at 60 µM ([2]; H9, 48 h) was 1.96. It also gave a fold induction at 120 µM ([2]; H9, 48 h) of 2.28, a fold induction at 30 µM ([2]; H9, 72 h) of 0.86 and a fold induction at 60 µM ([2]; H9, 72 h) of 1.01. The fold induction at 120 µM ([2]; H9, 72 h) was 1.6, the “elevation of QR” value [2, 6] was “least effective inducer of QR and GSH” and the “irreversible inhibition of reverse transcriptase” value ([3]; kinetic behaviour) was “behaves kinetically as an irreversible inhibitor of RT”. The Ki ([3]; preincubation with TTP, experiment of FIG. 6, Kitz-Wilson) was 15.6 µM, the “RT inactivation in the presence of poly(A):oligo(dT)” value ([3]; preincubation with poly(A):oligo(dT), FIG. 6 lower, listed as oltipraz) was “indistinguishable from rates of RT inactivation in its absence; also recorded: inconsistent with irreversible inhibition” and the Ki ([3]; preincubation, N=5 independent experiments) was 25.9 ± 3.4 µM. The kinact ([3]; preincubation, N=5 independent experiments, read-out: k3 (limiting rate of inactivation) (converted)) was 1.44e-05 s⁻¹, the kinact ([3]; read-out: k3 (limiting rate of inactivation), preincubation with TTP, experiment of FIG. 6, Kitz-Wilson) was 2.33e-05 s⁻¹ and the “effect on levels of RT activity in media” value [4] was “dose-dependent effect”. For the same compound, the “inhibition of glutathione S-transferases” value [5] was “irreversibly inhibits”.
